≈ marks a conversion by molar mass, not a printed value.
Legend:
C albicans A-26 = experiment: MIC determination (NCCLS broth method); format: cell-based, Candida albicans; details: Candida albicans, A26, read-out: Minimum Inhibitory Concentration (MIC)
From the text: (§1) The in-vitro evaluation of the antifungal activity of the compounds can be performed by determining the minimum inhibitory concentration (MIC) as shown in Table 1 which is the concentration of the test compound in Rosewell Park Memorial Institute (RPMI) 1640 liquid medium buffered with 3-(Morpholino)propanesulphonic acid (MOPS) to pH 7, at which there is significant inhibition of the particular fungi. In practice the National Committee for Clinical Laboratory Standard (NCCLS) M27A document for Candida and Cryptococcus and M38P for Aspergillus was used to determine the MIC against yeast and filamentous fungi with suitable modifications for dermatophytes to other filamentous fungi. Three quality control strains were included each time the MIC were determined and readings recorded only when the Quality Control results fell into the acceptable range. After MIC results had been recorded, 100 μl from each of the well showing no growth was spread over Sabouraud Dextrose Agar (SDA) to determine the minimum fungicidal concentration (MFC) as shown in Table 2.

C albicans Y01.19 = experiment: MIC determination (NCCLS broth method); format: cell-based, Candida albicans; details: Candida albicans, read-out: Minimum Inhibitory Concentration (MIC)
From the text: as §1

A niger P1 - 1046 = experiment: MIC determination (NCCLS broth method); format: cell-based; details: read-out: Minimum Inhibitory Concentration (MIC)
From the text: as §1

C glabrata 90030 = experiment: MIC determination (NCCLS broth method); format: cell-based; details: read-out: Minimum Inhibitory Concentration (MIC)
From the text: as §1

Alternaria 1051 = experiment: MIC determination (NCCLS broth method); format: cell-based; details: read-out: Minimum Inhibitory Concentration (MIC)
From the text: as §1

C parapsilosis 22019 = experiment: MIC determination (NCCLS broth method); format: cell-based; details: read-out: Minimum Inhibitory Concentration (MIC)
From the text: as §1

A flavus E2 - 1043 = experiment: MIC determination (NCCLS broth method); format: cell-based; details: read-out: Minimum Inhibitory Concentration (MIC)
From the text: as §1

Fusarium 1050 = experiment: MIC determination (NCCLS broth method); format: cell-based; details: read-out: Minimum Inhibitory Concentration (MIC)
From the text: as §1

Penicillium 3162 = experiment: MIC determination (NCCLS broth method); format: cell-based; details: read-out: Minimum Inhibitory Concentration (MIC)
From the text: as §1

A flavus P2 - 1045 = experiment: MIC determination (NCCLS broth method); format: cell-based; details: read-out: Minimum Inhibitory Concentration (MIC)
From the text: as §1

C tropicalis 750 = experiment: MIC determination (NCCLS broth method); format: cell-based; details: read-out: Minimum Inhibitory Concentration (MIC)
From the text: as §1

Rhizopus 1052 = experiment: MIC determination (NCCLS broth method); format: cell-based; details: read-out: Minimum Inhibitory Concentration (MIC)
From the text: as §1

A flavus P3 - 1041 = experiment: MIC determination (NCCLS broth method); format: cell-based; details: read-out: Minimum Inhibitory Concentration (MIC)
From the text: as §1

Penicillium 1641 = experiment: MIC determination (NCCLS broth method); format: cell-based; details: read-out: Minimum Inhibitory Concentration (MIC)
From the text: as §1

Penicillium H - 1048 = experiment: MIC determination (NCCLS broth method); format: cell-based; details: H1048, read-out: Minimum Inhibitory Concentration (MIC)
From the text: as §1

Fusarium 1827C = experiment: MIC determination (NCCLS broth method); format: cell-based; details: read-out: Minimum Inhibitory Concentration (MIC)
From the text: as §1

C krusei 766.1 = experiment: MIC determination (NCCLS broth method); format: cell-based; details: read-out: Minimum Inhibitory Concentration (MIC)
From the text: as §1

A niger E5 - 1047 = experiment: MIC determination (NCCLS broth method); format: cell-based; details: read-out: Minimum Inhibitory Concentration (MIC)
From the text: as §1

Penicillium I - 1049 = experiment: MIC determination (NCCLS broth method); format: cell-based; details: I1049, read-out: Minimum Inhibitory Concentration (MIC)
From the text: as §1

Rhizopus (Ceylon) = experiment: MIC determination (NCCLS broth method); format: cell-based; details: read-out: Minimum Inhibitory Concentration (MIC)
From the text: as §1

A flavus E3 - 1044 = experiment: MIC determination (NCCLS broth method); format: cell-based; details: read-out: Minimum Inhibitory Concentration (MIC)
From the text: as §1

Mucor (Ceylon) = experiment: MIC determination (NCCLS broth method); format: cell-based; details: read-out: Minimum Inhibitory Concentration (MIC)
From the text: as §1

Fusarium 2960C = experiment: MIC determination (NCCLS broth method); format: cell-based; details: read-out: Minimum Inhibitory Concentration (MIC)
From the text: as §1

Penicillium 2548 = experiment: MIC determination (NCCLS broth method); format: cell-based; details: read-out: Minimum Inhibitory Concentration (MIC)
From the text: as §1

A flavus E4 - 1042 = experiment: MIC determination (NCCLS broth method); format: cell-based; details: read-out: Minimum Inhibitory Concentration (MIC)
From the text: as §1

C krusei 6258 = experiment: MIC determination (NCCLS broth method); format: cell-based; details: read-out: Minimum Inhibitory Concentration (MIC)
From the text: as §1

H capsulatum = experiment: MIC determination (NCCLS broth method); format: cell-based; details: read-out: Minimum Inhibitory Concentration (MIC)
From the text: as §1

Penicillium 191 = experiment: MIC determination (NCCLS broth method); format: cell-based; details: read-out: Minimum Inhibitory Concentration (MIC)
From the text: as §1

P variotii 22319 [1] = experiment: MIC determination (NCCLS broth method); format: cell-based, Paecillomyces variotii; details: read-out: Minimum Inhibitory Concentration (MIC)
From the text: as §1

P variotii 22319 [2] = experiment: MFC determination (subculture on Sabouraud Dextrose Agar); format: cell-based, Paecillomyces variotii; details: read-out: Minimum Fungicidal Concentration (MFC)
From the text: as §1

A fumigatus SI-1 - 1019 = experiment: MIC determination (NCCLS broth method); format: cell-based, Aspergillus fumigatus; details: Aspergillus fumigatus, SI11019, read-out: Minimum Inhibitory Concentration (MIC)
From the text: as §1

All fungal pathogens = experiment: Comparative in vitro MIC, isolate panel; format: cell-based
Rhizoupus spp. isolates = experiment: Comparative in vitro MIC, isolate panel; format: cell-based
[3] = test system: Aspergillus fumigatus isolates; experiment: Comparative in vitro MIC, isolate panel; format: cell-based
All Candida isolates = experiment: Comparative in vitro MIC, isolate panel; format: cell-based
[4] = test system: Penicillium spp. isolates; experiment: Comparative in vitro MIC, isolate panel; format: cell-based
Fusarium spp. isolates = experiment: Comparative in vitro MIC, isolate panel; format: cell-based
All Filamentous isolates = experiment: Comparative in vitro MIC, isolate panel; format: cell-based
C neoformans M-106 = experiment: MIC determination (NCCLS broth method); format: cell-based, Cryptococcus neoformans; details: Cryptococcus neoformans, M106, read-out: Minimum Inhibitory Concentration (MIC)
From the text: as §1

C neoformans I = experiment: MIC determination (NCCLS broth method); format: cell-based, Cryptococcus neoformans; details: Cryptococcus neoformans, read-out: Minimum Inhibitory Concentration (MIC)
From the text: as §1

For OC(Cn1cncn1)(Cn1cncn1)c1ccc(F)cc1F [Fluconazole], the MIC (C albicans A-26) was 0.5 µg/mL (≈ 1.63 µM), the MIC (C albicans Y01.19) was 8 µg/mL (≈ 26.1 µM) and the MIC (A niger P1 - 1046) was 128 µg/mL (≈ 418 µM). For the same molecule, the MIC (C glabrata 90030) was 4 µg/mL (≈ 13.1 µM), the MIC (Alternaria 1051) was greater than 128 µg/mL and the MIC (C parapsilosis 22019) was 2 µg/mL (≈ 6.53 µM). It also gave an MIC (A flavus E2 - 1043) greater than 128 µg/mL, an MIC (Fusarium 1050) greater than 128 µg/mL and an MIC (Penicillium 3162) greater than 128 µg/mL. For the same molecule, the MIC (A flavus P2 - 1045) was greater than 128 µg/mL, the MIC (C tropicalis 750) was 0.5 µg/mL (≈ 1.63 µM) and the MIC (Rhizopus 1052) was greater than 128 µg/mL. For the same molecule, the MIC (A flavus P3 - 1041) was greater than 128 µg/mL, the MIC (Penicillium 1641) was 64 µg/mL (≈ 209 µM) and the MIC (Penicillium H - 1048) was greater than 128 µg/mL. The MIC (Fusarium 1827C) was greater than 128 µg/mL, the MIC (C krusei 766.1) was 128 µg/mL (≈ 418 µM) and the MIC (A niger E5 - 1047) was greater than 128 µg/mL. It also gave an MIC (Penicillium I - 1049) greater than 128 µg/mL, an MIC (Rhizopus (Ceylon)) greater than 128 µg/mL and an MIC (A flavus E3 - 1044) greater than 128 µg/mL. For the same molecule, the MIC (Mucor (Ceylon)) was greater than 128 µg/mL, the MIC (Fusarium 2960C) was greater than 128 µg/mL and the MIC (Penicillium 2548) was 128 µg/mL (≈ 418 µM). It also gave an MIC (A flavus E4 - 1042) greater than 128 µg/mL, an MIC (C krusei 6258) of 32 µg/mL (≈ 104 µM) and an MIC (H capsulatum) of 4 µg/mL (≈ 13.1 µM). It also gave an MIC (Penicillium 191) of 64 µg/mL (≈ 209 µM), an MIC (P variotii 22319 [1]) greater than 128 µg/mL and an MFC (P variotii 22319 [2]) greater than 128 µg/mL. It also gave an MIC (A fumigatus SI-1 - 1019) greater than 128 µg/mL, an MIC (All fungal pathogens) of 105 µg/mL (≈ 343 µM) and an MIC (Rhizoupus spp. isolates) of 256 µg/mL (≈ 836 µM). It also gave an MIC50 (Rhizoupus spp. isolates; read-out: MIC50) of 256 µg/mL (≈ 836 µM), an MIC90 (Rhizoupus spp. isolates; read-out: MIC90) of 256 µg/mL (≈ 836 µM) and an MIC [3] of 256 µg/mL (≈ 836 µM). For the same molecule, the MIC50 ([3]; read-out: MIC50) was 256 µg/mL (≈ 836 µM), the MIC90 ([3]; read-out: MIC90) was 256 µg/mL (≈ 836 µM) and the MIC (All Candida isolates) was 5.3 µg/mL (≈ 17.3 µM). For the same molecule, the MIC50 (All Candida isolates; read-out: MIC50) was 8 µg/mL (≈ 26.1 µM), the MIC90 (All Candida isolates; read-out: MIC90) was 128 µg/mL (≈ 418 µM) and the MIC [4] was 174 µg/mL (≈ 569 µM). The MIC50 ([4]; read-out: MIC50) was 256 µg/mL (≈ 836 µM), the MIC90 ([4]; read-out: MIC90) was 256 µg/mL (≈ 836 µM) and the MIC (Fusarium spp. isolates) was 256 µg/mL (≈ 836 µM). The MIC50 (Fusarium spp. isolates; read-out: MIC50) was 256 µg/mL (≈ 836 µM), the MIC90 (Fusarium spp. isolates; read-out: MIC90) was 256 µg/mL (≈ 836 µM) and the MIC (All Filamentous isolates) was 199 µg/mL (≈ 650 µM). For the same molecule, the MIC (C neoformans M-106) was 4 µg/mL (≈ 13.1 µM) and the MIC (C neoformans I) was 1 µg/mL (≈ 3.27 µM).

— patent US6710049B2, “Azole compounds as anti-fungal agents” (Ranbaxy Laboratories Limited, priority 2000, dated 2004)
